Assay results from PMC4457802 (PLoS ONE, 2015).
Read-outs that look alike come from different tables or passages of the source.

What was measured:
S. aureus ATCC 25923 = format: cell-based, Staphylococcus aureus; conditions: numbers in parentheses are micromolar concentrations
From the text: (§1) Thirty (30) Pneumococcal clinical isolates were obtained from University of Malaya Medical Centre (UMMC). For broad-spectrum activity of AMPs, E. coli ATCC 25922, Staphylococcus aureus ATCC 25923, P. aeruginosa ATCC 15442, Acinetobacter baumanii ATCC 15308, and one clinical isolate of each methicillin resistant S. aureus (MRSA), […], citrobacter spp., and K. pneumoniae were used in this study.
(§2) The minimum inhibitory concentration (MIC) of the peptides against 30 pneumococcal isolates was determined by broth microdilution protocol as indicated by the CLSI guidelines (Clinical and Laboratory Standards Institute). Briefly, bacterial strains were grown for 18–24 hr at 37°C under 5% CO2. Direct suspension of the colonies were made in cationically-adjusted Müeller-Hinton broth (CAMHB) and adjusted to OD 625 0.08–0.1 which corresponds to 1 ~ 2 x10^8 CFU/ml followed by serial ten-fold dilutions to give 1x10^6 CFU/ml. 50μl of bacterial suspension were added to 96-well round bottom microtiter plates containing equal volume of peptides at different concentrations (1.95, 3.90, 7.81, 15.62, 31.25, 62.5, 125, 250μg/ml) and the 96-well plates were incubated for 20-24hr at 37°C in the presence of 5% CO2.

K. pneumoniae = format: cell-based; conditions: numbers in parentheses are micromolar concentrations
From the text: as §1, §2

P. aeruginosa ATCC 15442 = format: cell-based; conditions: numbers in parentheses are micromolar concentrations
From the text: as §1, §2

[1] = system: Methicillin resistant S. aureus (MRSA); format: cell-based; conditions: numbers in parentheses are micromolar concentrations
From the text: as §1, §2

E. coli ATCC 25922 = format: cell-based; conditions: numbers in parentheses are micromolar concentrations
From the text: as §1, §2

citrobacter spp = format: cell-based; conditions: numbers in parentheses are micromolar concentrations
From the text: as §1, §2

[2] = system: Acinetobacter baumanii ATCC 15308; format: cell-based; conditions: numbers in parentheses are micromolar concentrations
From the text: as §1, §2

Enterococcus cloacae = format: cell-based; conditions: numbers in parentheses are micromolar concentrations
From the text: as §1, §2

[3] = system: S. pneumoniae (30 clinical isolates); format: cell-based, Streptococcus pneumoniae; conditions: for MIC S. pneumoniae (30 clinical isolates), in parentheses: numbers in parentheses are micromolar concentrations; for MIC S. pneumoniae (30 clinical isolates): broth microdilution, CAMHB, 20-24hr, 37°C, 5% CO2, lowest concentration that completely inhibits growth
From the text: as §1, §2

Streptococcus pneumoniae = assay: Time killing assay; format: cell-based; conditions: 1×MIC, MHB, 37°C, sampled every 30 min to 240 min, triplicate
Description: The bactericidal activities of peptides were performed as described previously. […] 10μl of bacterial suspensions were removed at various time intervals (30, 60, 90, 120, 150, 180, 210, and 240 min), serially diluted in PBS and plated onto Columbia agar with 5% sheep blood for 20-24hr at 37°C in the presence of 5% CO2 to obtain viable colonies. Erythromycin and ceftriaxone were used as positive control and the assay was performed in triplicate.

| Substance | MIC S. aureus ATCC 25923, in parentheses (S. aureus ATCC 25923) | MIC K. pneumoniae, in parentheses (K. pneumoniae) | MIC P. aeruginosa ATCC 15442, in parentheses (P. aeruginosa ATCC 15442) | MIC MRSA, in parentheses [1] | MIC E. coli ATCC 25922, in parentheses (E. coli ATCC 25922) | MIC citrobacter spp, in parentheses (citrobacter spp) | MIC Acinetobacter baumanii ATCC 15308, in parentheses [2] | MIC Enterococcus cloacae, in parentheses (Enterococcus cloacae) | MIC S. pneumoniae (30 clinical isolates), in parentheses [3] | MIC S. aureus ATCC 25923, in parentheses (S. aureus ATCC 25923; unit of the source corrected) [µg/mL] | time to completely kill 10^6 CFU/ml of S. pneumoniae (Streptococcus pneumoniae) [min] | MIC P. aeruginosa ATCC 15442, in parentheses (P. aeruginosa ATCC 15442; unit of the source corrected) [µg/mL] | MIC MRSA, in parentheses ([1]; unit of the source corrected) [µg/mL] | MIC E. coli ATCC 25922, in parentheses (E. coli ATCC 25922; unit of the source corrected) [µg/mL] | MIC S. pneumoniae (30 clinical isolates) [3] [µg/mL] | MIC S. pneumoniae (30 clinical isolates), in parentheses ([3]; unit of the source corrected) [µg/mL] |
| --- | --- | --- | --- | --- | --- | --- | --- | --- | --- | --- | --- | --- | --- | --- | --- | --- |
| FLGGLIKPVPAMICAVRKKC-OH [RN2, ranalexin analog] | >250 (>116) micromolar | >250 (>116) micromolar | >250 (>116) micromolar | >250 (>116) micromolar | >250 (>116) micromolar | >250 (>116) micromolar | >250 (>116) micromolar | >250 (>116) micromolar | >250 (>116) micromolar |  |  |  |  |  |  |  |
| FLGGLIKPWWPWRR-NH2 [RN7-IN7, hybrid peptide of ranalexin and indolicidin] |  | >250 (>138) micromolar |  |  |  | >250 (>138) micromolar | 125 (69) micromolar | >250 (>138) micromolar |  | 31.2 | 120 | 62.5 | 31.2 | 31.2 | 31.25 to 62.5 | 31.2 to 62.5 |
| FLGGLIKRPPAMICAVRKKC-OH [RN4, ranalexin analog] | >250 (>113) micromolar | >250 (>113) micromolar | >250 (>113) micromolar | >250 (>113) micromolar | >250 (>113) micromolar | >250 (>113) micromolar | >250 (>113) micromolar | >250 (>113) micromolar | >250 (>113) micromolar |  |  |  |  |  |  |  |
| FLGGLIKIVPAMICAVRKKC-OH [RN1, ranalexin analog] |  | >250 (>115.7) micromolar | >250 (>115.7) micromolar |  |  | >250 (>115.7) micromolar | >250 (>115.7) micromolar | >250 (>115.7) micromolar |  | 125 |  |  | 250 | 250 |  | 250 |
| LLPWKWPWWKWRR-NH2 [IN1, indolicidin analog] |  | >250 (>129) micromolar |  |  |  | >250 (>129) micromolar | >250 (129) micromolar | >250 (>129) micromolar |  | 31.2 | 210 | 31.2 | 31.2 | 31.2 | 31.25 to 62.5 | 31.2 to 62.5 |
| FLGGLIKRVPAMICAVRKKC-OH [RN3, ranalexin analog] | >250 (>113) micromolar | >250 (>113) micromolar | >250 (>113) micromolar | >250 (>113) micromolar | >250 (>113) micromolar | >250 (>113) micromolar | >250 (>113) micromolar | >250 (>113) micromolar | >250 (>113) micromolar |  |  |  |  |  |  |  |
